We go through six compounds from patent US11072812B2, “Substrates for covalent tethering of proteins to functional groups or solid surfaces” (PROMEGA CORPORATION, priority 2013, dated 2021).

Experiment [1] relates to HaloTag® protein. Briefly: Binding efficiency/kinetics to HaloTag protein in cell lysate (chase with fluorescent HaloTag ligand, SDS-PAGE). The conditions noted are these: 1 μM; for binding efficiency / labeling kinetics to HaloTag protein in lysate: methotrexate-chloroalkane conjugates, 0-60 min (O4 = PBI-4849, O6 = PBI-4850). On the procedure:
a) Binding efficiency to HaloTag® protein in lysate was measured by adding the methotrexate-chloroalkane conjugates to lysate from cells expressing a HaloTag® protein to a final concentration of 1 μM. Following 0-60 mins of binding, the reactions were chased with 1 μM fluorescent HaloTag® ligand. Unbound HaloTag® protein was detected through binding to the fluorescent HaloTag® ligand followed by analysis on SDS-PAGE gel and detection on a fluorescent gel scanner.
a) Binding efficiency to HaloTag® protein in lysate was measured by adding the dexamethasone-chloroalkane conjugates to lysate from cells expressing a HaloTag® protein to a final concentration of 1 μM. Following 0-60 mins of binding, the reactions were chased with 1 μM fluorescent HaloTag® ligand. Unbound HaloTag® protein was detected through binding to the fluorescent HaloTag ligand followed by analysis on SDS-PAGE gel and detection on a fluorescent gel scanner.
a) Binding kinetics to HaloTag® protein in cell lysate was measured by adding the modified BIRB796-chloroalkane conjugates to lysate from cells expressing a HaloTag® protein at a final concentration of 1 μM. After 0-60 min of binding, the reactions were chased with 1 μM fluorescent HaloTag® ligand (Promega Corporation). Unbound HaloTag® protein was detected through binding to the fluorescent HaloTag® ligand followed by analysis on SDS-PAGE and detection on a fluorescent gel scanner.
Following 0-60 min of binding, the reactions were chased with 1 μM fluorescent HaloTag® ligand. Unbound HaloTag® protein was detected through binding to the fluorescent HaloTag® ligand followed by analysis on SDS-PAGE and detection on a fluorescent gel scanner.
a) Binding kinetics to HaloTag® protein in cell lysate was measured by adding the dasatinib-chloroalkane conjugates to lysate (final concentration of 1 μM) from cells expressing a HaloTag® protein. Following 0-60 min of binding, the reactions were chased with 1 μM fluorescent HaloTag® ligand. Unbound HaloTag® protein was detected through binding to the fluorescent HaloTag® ligand followed by analysis on SDS-PAGE and detection on a fluorescent gel scanner.

Experiment [2] has as its system HaloTag® protein. Briefly: Binding efficiency/kinetics to HaloTag protein in cells (cell permeability; chase with fluorescent HaloTag ligand, SDS-PAGE). The class given is cell-based. The note with it: 10 μM. The procedure:
b) Binding efficiency to HaloTag® protein in cells was measured by adding the methotrexate-chloroalkane conjugates to cells expressing a HaloTag® protein to a final concentration of 10 μM. Following 0-120 mins of binding, the reactions were chased with 5 μM fluorescent HaloTag® ligand. Unbound HaloTag® protein was detected through binding to the fluorescent HaloTag® ligand followed by cell lysis, analysis on a SDS-PAGE gel and detection on a fluorescent gel scanner.
b) Binding efficiency to HaloTag® protein in cells was measured by adding the dexamethasone-chloroalkane conjugates to cells expressing a HaloTag® protein to a final concentration of 10 μM. Following 0-60 mins of binding, the reaction was chased with 5 μM fluorescent HaloTag ligand. Unbound HaloTag® protein was detected through binding to the fluorescent HaloTag® ligand followed by cell lysis, analysis on SDS-PAGE gel and detection on a fluorescent gel scanner.
b) Binding kinetics to HaloTag® protein in cells was measured by adding the modified BIRB796-chloroalkane conjugates to cells expressing a HaloTag® protein at a final concentration of 10 μM. Following 0-60 min of binding, the reactions were chased with 5 μM fluorescent HaloTag® ligand. Unbound HaloTag® protein was detected through binding to the fluorescent HaloTag® ligand followed by cell lysis, analysis on SDS-PAGE and detection on a fluorescent gel scanner.
Following 0-180 min of binding, the reactions were chased with 5 μM fluorescent HaloTag® ligand. Unbound HaloTag® protein was detected through binding to the fluorescent HaloTag® ligand followed by cell lysis, analysis on SDS-PAGE and detection on a fluorescent gel scanner.
b) Binding kinetics to HaloTag® protein in cells was measured by adding the dasatinib-chloroalkane conjugates (final concentration of 10 μM) to cells expressing a HaloTag protein which localized to the cytoplasm or the nucleus. Following 0-90 min of binding, the reactions were chased with 5 μM fluorescent HaloTag® ligand. Unbound HaloTag® protein was detected through binding to the fluorescent HaloTag® ligand followed by cell lysis, analysis on SDS-PAGE and detection on a fluorescent gel scanner.

Experiment [3] concerns the target T1, NanoLuc-DHFR fusion protein (Homo sapiens, UniProt P00374).
T1 construct: expressed in transfected cells; host or cells: HEK293
T1 sequence (P00374 1-187): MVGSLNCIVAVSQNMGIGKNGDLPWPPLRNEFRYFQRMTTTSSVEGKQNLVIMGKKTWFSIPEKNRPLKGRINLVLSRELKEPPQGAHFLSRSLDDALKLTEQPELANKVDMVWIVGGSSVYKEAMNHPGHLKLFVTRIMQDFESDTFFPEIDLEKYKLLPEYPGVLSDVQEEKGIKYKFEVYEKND
The experiment can be described thus: Pull-down of NanoLuc-DHFR fusion from living HEK293 cells onto HaloTag protein beads. It is filed as cell-based. The conditions noted are these: HEK293, 10 uM conjugate, 2 h; beads 45 min; release with 150 μM methotrexate. On the procedure:
HEK293 cells were plated and transfected using PEI with plasmid DNA encoding a NANOLUC-DHFR fusion in wells of a 96-well plate. The DNA was diluted 1:50 with a promoterless carrier DNA plasmid (pCI) to a final concentration of 80 ng total DNA per well. Twenty-four hours post-transfection, cells were serum starved for additional 24 hours and then treated with […] 10 uM PBI-4848 or PBI-5015 while control cells were not treated with the conjugated drug. Following equilibration binding of 2 h, the media was removed, and the cells quickly washed with PBS and lysed in detergent-based lysis buffer for 10 min. Cell lysates were then transferred to wells of a 96-well plate containing 0.5 μl settled paramagnetic HALOTAG protein beads and incubated with shaking for 45 min. Following binding, the unbound fraction was removed, the HALOTAG protein paramagnetic beads washed, 150 μM unconjugated methotrexate added, and the captured NANOLUC:DHFR specifically released from the beads by competition with the unconjugated methotrexate for 60 min. The released NANOLUC:DHFR (+PBI-5015 or +PBI-4848) and control samples were detected by NANOGLO luciferase detection reagent.

The target of another experiment is T2, NanoLuc:GR fusion (Homo sapiens, UniProt P04150).
T2 construct: expressed in transfected cells; host or cells: HEK293
T2 sequence (P04150 1-777): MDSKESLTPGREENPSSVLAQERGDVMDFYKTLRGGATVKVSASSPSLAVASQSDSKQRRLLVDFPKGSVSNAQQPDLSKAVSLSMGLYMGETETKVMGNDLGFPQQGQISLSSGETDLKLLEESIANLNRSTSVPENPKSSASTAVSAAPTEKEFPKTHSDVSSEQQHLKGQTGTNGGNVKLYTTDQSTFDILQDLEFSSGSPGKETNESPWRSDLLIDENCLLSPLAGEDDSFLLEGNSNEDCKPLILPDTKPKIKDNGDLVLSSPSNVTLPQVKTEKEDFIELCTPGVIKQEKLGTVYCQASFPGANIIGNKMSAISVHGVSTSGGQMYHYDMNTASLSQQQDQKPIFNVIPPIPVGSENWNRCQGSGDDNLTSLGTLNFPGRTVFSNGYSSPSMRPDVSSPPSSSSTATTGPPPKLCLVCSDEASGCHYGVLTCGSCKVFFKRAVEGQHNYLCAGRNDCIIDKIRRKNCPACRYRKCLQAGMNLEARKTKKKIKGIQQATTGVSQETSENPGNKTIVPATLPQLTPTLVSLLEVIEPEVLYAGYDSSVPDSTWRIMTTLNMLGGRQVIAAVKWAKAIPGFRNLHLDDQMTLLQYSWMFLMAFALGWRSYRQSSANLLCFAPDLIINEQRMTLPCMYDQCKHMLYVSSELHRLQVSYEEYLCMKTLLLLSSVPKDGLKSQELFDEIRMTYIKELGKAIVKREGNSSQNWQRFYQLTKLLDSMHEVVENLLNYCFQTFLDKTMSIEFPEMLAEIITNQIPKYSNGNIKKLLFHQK
The experiment can be described thus: Pull-down of NanoLuc:GR fusion from live HEK293 cells onto HaloTag protein beads. It is filed as cell-based. The note with it: HEK293, 10 μM conjugate, 2 h; beads 45 min; release with 150 μM dexamethasone; PBI-4980 compared with PBI-4025. On the procedure: HEK293 cells were plated and transfected using PEI with plasmid DNA encoding NanoLuc:GR fusion in wells of a 96-well plate. The DNA was diluted 1:50 with a promoterless carrier DNA plasmid (pCI neo) to a final concentration of 80 ng total DNA per well. Twenty-four hours post-transfection, cells were serum starved for additional 24 hours then incubated with a final concentration of 10 μM PBI-4980 or PBI-4025 while control cells were not treated with the conjugated drug. Following equilibration binding of 2 h, the media was removed, cells quickly washed with PBS and lysed in detergent-based lysis buffer for 10 min. Cell lysates were than transferred to wells of a 96-well plate containing 0.5 μl settled paramagnetic HaloTag® protein beads and incubated with shaking for 45 min. Following binding the unbound fraction was removed, the HaloTag® protein paramagnetic beads were washed 3×, and the captured NanoLuc fusion was specifically released from the beads by competition with 150 μM unconjugated Dexamethasone for 60 min. The released NanoLuc:GR (+PBI-4980 or +PBI-4025) and control samples were detected by using the NanoGlo® assay reagent (Promega Corp).

Experiment [4] deals with T3, glucocorticoid receptor (GR) (Homo sapiens, UniProt P04150).
T3 construct: purchased Life Technology
T3 sequence (P04150 1-777): T2 sequence (P04150 1-777)
Briefly: Glucocorticoid receptor competitor assay (fluorescence polarization, Life Technology). The class given is binding. The conditions noted are these: dexamethasone-chloroalkane conjugates (carbamate linker = PBI-4980). The source says: c) Binding efficiency to the target glucocorticoid receptor (GR) was done using the glucocorticoid receptor competitor assay (Life Technology) as recommended by the manufacturer.

The mark [5] stands for this setting: methotrexate-chloroalkane conjugates, 0-120 min (O4 = PBI-4849, O6 = PBI-4850).

The structures appear in SMILES notation. “Also recorded” adds a separate entry of the source.

For `Cc1nc(Nc2ncc(C(=O)Nc3c(C)cccc3Cl)s2)cc(N2CCN(CCOC(=O)NCCOCCOCCCCCCCl)CC2)n1` [PBI-5590, Dasatinib Monocarbamate], the “binding kinetics to HaloTag protein in cell lysate” value with HaloTag® protein [1] (dasatinib-chloroalkane conjugates, 0-60 min, compared with PBI-5270) is on record as “faster binding kinetics”.
Turning to `CN(Cc1cnc2nc(N)nc(N)c2n1)c1ccc(C(=O)NC(CCC(=O)NCCOCCOCCCCCCCl)C(=O)O)cc1` (stereo not shown) [PBI-4848, Methotrexate-O2 Chloroalkane], the “cell permeability/binding efficiency to HaloTag protein in cells” value (from here on “cell permeability/binding efficiency”) with HaloTag® protein [2] (setting [5]) was “best cell permeability and binding efficiency; also recorded: higher cell permeability”. For the same compound, the “binding efficiency / labeling kinetics to HaloTag protein in lysate” value in the experiment on HaloTag® protein [1] is reported as “fast labeling kinetics”.
As to `CN(Cc1cnc2nc(N)nc(N)c2n1)c1ccc(C(=O)NC(CCC(=O)NCCCCCNC(=O)OCCOCCOCCOC(=O)NCCOCCOCCCCCCCl)C(=O)O)cc1` (stereo not shown) [PBI-5015, Methotrexate Carbamate Chloroalkane], the “cell permeability/binding efficiency” value in the experiment with HaloTag® protein [2] (setting [5]) was “good cell permeability and binding efficiency; also recorded: best cell permeability and binding efficiency”. The “binding efficiency / labeling kinetics to HaloTag protein in lysate” value in the experiment with HaloTag® protein [1] is “fast labeling kinetics”. Besides, the “pull-down of Nluc:DHFR fusion from living cells” value in experiment [3] is on record as “efficiently pulled down”.
Consider `C[C@@H]1CC2[C@@H]3CCC4=CC(=O)C=C[C@]4(C)[C@@]3(F)[C@@H](O)C[C@]2(C)[C@@]1(O)C(=O)NCCCCCNC(=O)OCCOCCOCCOC(=O)NCCOCCOCCCCCCCl` (stereo partly shown) [PBI-4980, Dexamethasone Carbamate Chloroalkane], for which the “cell permeability/binding efficiency” value with HaloTag® protein [2] (dexamethasone-chloroalkane conjugates, 0-60 min (O4 = PBI-4026, O6 = PBI-4025)) is reported as “best cell permeability/binding efficiency”. At NanoLuc:GR fusion, the “efficiency of Nluc:GR fusion pull down” value is reported as “significantly higher”. In addition, the “affinity / binding efficiency to glucocorticoid receptor” value is on record as “best binding efficiency” in experiment [4] and “highest affinity” in experiment [4] (listed as carbamate linker). Moreover, the “binding kinetics to HaloTag protein in lysate” value with HaloTag® protein [1] (dexamethasone-chloroalkane conjugates, 0-60 min) is “faster binding kinetics”.
Turning to `C[C@@H]1CC2[C@@H]3CCC4=CC(=O)C=C[C@]4(C)[C@@]3(F)[C@@H](O)C[C@]2(C)[C@@]1(O)C(=O)NCCOCCOCCOCCOCCC(=O)NCCOCCOCCCCCCCl` (stereo partly shown) [PBI-4025], in experiment [4], the “affinity / binding efficiency to glucocorticoid receptor” value is “highest affinity; also recorded: best binding efficiency; also recorded: higher affinity”.
On to `CC(C)(C)c1cc(NC(=O)Nc2ccccc2)n(-c2cccc(CNC(=O)CNC(=O)CCC(=O)NCCOCCOCCCCCCCl)c2)n1` [PBI-4832, BIRB* O2 Chloroalkane], for which, in the experiment on HaloTag® protein [1] (modified BIRB796-chloroalkane conjugates, 0-60 min), the “binding kinetics to HaloTag protein in cell lysate” value is “fast binding kinetics”.
